Assay in all cases: NCI tumour cell line growth inhibition, 48 h
The subject of assay [1] is SF-295.
Assay [2] concerns RPMI-8226.
Assay [3] relates to OVCAR-8.
Assay [4] has as its system OVCAR-5.
For assay [5], the system named is MDA-MB-435.
Assay [6] deals with SF-539.
In assay [7] the test system is MDA-MB-231.
Assay [8] has as its system K562.
For assay [9], the system named is NCI-H460.
In assay [10] the test system is CCRF-CEM.
Assay [11] has as its system SK-MEL-5.
Assay [12] deals with NCI-H522.
Assay [13] relates to TK-10.
The subject of assay [14] is HOP-92.
Assay [15] has as its system Hs-578T.
Assay [16] concerns IGROV-1.
The test system of assay [17] is MCF7.
For assay [18], the system named is DU-145.
Assay [19] concerns A498.
In assay [20] the test system is SK-MEL-28.

These results are taken from ChEMBL document CHEMBL1201862, “PubChem BioAssay data set” (2004).

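Cultured in 96-well plates, cells were exposed to test compound for 48 hours across five concentrations. The concentration for 50% growth inhibition is given as GI50.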 Calls of active or inactive are those of the source. No stated cut-off is given here; in the data, active = GI50 up to about 1.1 µM and inactive = higher.

As for `O=C(O)c1c(-c2c3ccc(=O)cc-3oc3cc(O)ccc23)cc2ccccc2c1-c1ccccc1`, the GI50 in [1], in assay [2], in assay [3], in [4], in assay [5] and in assay [6] was > 100 µM (inactive) each time. Further, the GI50 was > 100 µM (inactive) in [7]; 4.51 µM (inactive) in assay [8]; > 66.4 µM (inactive) in [9]; > 20.6 µM (inactive) in [10]; > 100 µM (inactive) in assay [11]; > 100 µM (inactive) in assay [12]. Moreover, the GI50 in [13] was > 36.6 µM (inactive); in [14], > 100 µM (inactive); in assay [15] it was > 100 µM (inactive); in assay [16], > 100 µM (inactive); in assay [17] it was > 100 µM (inactive); in assay [18] it was > 100 µM (inactive). The GI50 in [19] and in assay [20] was > 100 µM (inactive) in each case.
As to `CCN(CC)CC(O)CNc1ccc(NCC(O)CCl)c2c1C(=O)c1ccccc1C2=O` (configuration not stated), the GI50 in [1] is 9.75 µM (inactive); in assay [2], 4.92 µM (inactive); in assay [3], 3.85 µM (inactive); in assay [4], 15.1 µM (inactive); in assay [5], 4.45 µM (inactive); in [6], 6.27 µM (inactive). Also, the GI50 in assay [7] is 11.1 µM (inactive); in [8], 1.27 µM (inactive); in assay [9], 2.78 µM (inactive); in assay [10] it was 1.06 µM (active); in [11], 7.48 µM (inactive); in [12] it was 4.47 µM (inactive). Moreover, the GI50 in [13] is 12.1 µM (inactive); in assay [14], 5.58 µM (inactive); in assay [15], 11.6 µM (inactive); in assay [16] it was 10 µM (inactive); in [17], 1.56 µM (inactive); in assay [18] it was 13.4 µM (inactive). The GI50 in assay [19] was 13.5 µM (inactive); in assay [20], 11.5 µM (inactive).
Turning to `COC1(OC)C2(Cl)C(Cl)=C(Cl)C1(Cl)C1c3ccc(C(C)=O)c4cccc(c34)C12` (configuration not stated), the GI50 in assay [1] is 26 µM (inactive); in assay [2] it was 5.82 µM (inactive); in [3], 48.6 µM (inactive); in assay [4], 28.6 µM (inactive); in assay [5] it was 7.67 µM (inactive); in [6], 64 µM (inactive). In addition, the GI50 was 9.73 µM (inactive) in assay [7]; 6.38 µM (inactive) in [8]; 14.5 µM (inactive) in assay [9]; 13.8 µM (inactive) in assay [10]; 10.4 µM (inactive) in assay [11]; 13.3 µM (inactive) in assay [12]. Also, the GI50 was 71 µM (inactive) in [13]; 2.89 µM (inactive) in assay [14]; > 100 µM (inactive) in assay [15]; > 94.6 µM (inactive) in assay [16]; 5.5 µM (inactive) in assay [17]; 26.2 µM (inactive) in assay [18]. The GI50 in [19] is 14.3 µM (inactive); in assay [20] it was 42.8 µM (inactive).
Regarding `CCCCCCCCCCCCCCCCCc1cccc(OCOCCOC)c1C(=O)O`, the GI50 is 18.1 µM (inactive) in [1]; 24.3 µM (inactive) in assay [2]; 16.4 µM (inactive) in [3]; 16.8 µM (inactive) in assay [4]; 19.2 µM (inactive) in [5]; 16.2 µM (inactive) in assay [6]. The GI50 was 19.7 µM (inactive) in assay [7]; 30.5 µM (inactive) in [8]; 21.5 µM (inactive) in assay [9]; 26.7 µM (inactive) in assay [10]; 20 µM (inactive) in assay [11]; 14.9 µM (inactive) in assay [12]. The GI50 in assay [13] is 18.9 µM (inactive); in assay [14], 18.9 µM (inactive); in [15] it was 18.6 µM (inactive); in assay [16] it was 16.9 µM (inactive); in assay [17], 21.7 µM (inactive); in assay [18], 17.7 µM (inactive). For the same compound, the values for the GI50 in [19] and in assay [20] were 17.8 µM (inactive) and 20.1 µM (inactive), respectively.
For the compound `O=c1c(-c2nc3ccccc3c3ccccc3c2=O)nc2ccccc2c2ccccc12`, the GI50 was 29.7 µM (inactive) in assay [1]; 26.2 µM (inactive) in [2]; 27.7 µM (inactive) in assay [3]; 80.4 µM (inactive) in [4]; 29.2 µM (inactive) in [5]; 24.5 µM (inactive) in assay [6]. Besides, the GI50 in assay [7] is 34 µM (inactive); in assay [8] it was 32.9 µM (inactive); in assay [9], 41.3 µM (inactive); in assay [10], 28.1 µM (inactive); in assay [11] it was 24.8 µM (inactive); in [12], 37.1 µM (inactive). The GI50 is 48.4 µM (inactive) in [13]; 37.1 µM (inactive) in assay [14]; 51.4 µM (inactive) in assay [15]; 44.9 µM (inactive) in assay [16]; 38 µM (inactive) in assay [17]; 80.9 µM (inactive) in assay [18]. The GI50 in assay [19] was 35.7 µM (inactive); in assay [20], 55.5 µM (inactive).
For the compound `CCOC(=O)/C=C(\C(=O)OCC)n1ccc(=O)[nH]c1=O`, the GI50 in [1] is > 60.8 µM (inactive); in assay [2], 13.1 µM (inactive); in assay [3] it was 24 µM (inactive); in assay [4], 19.7 µM (inactive); in assay [5] it was 17.4 µM (inactive); in assay [6], 24.2 µM (inactive). The GI50 in assay [7] was 14.3 µM (inactive); in assay [8] it was 4.38 µM (inactive); in [9], 21.7 µM (inactive); in assay [10], 2.16 µM (inactive); in assay [11] it was 24.7 µM (inactive); in assay [12], 0.684 µM (active). Further, the GI50 in assay [13] is 13.3 µM (inactive); in assay [14] it was 2.55 µM (inactive); in [15], 29.4 µM (inactive); in assay [16] it was 15.4 µM (inactive); in assay [17] it was 9.2 µM (inactive); in assay [18], 31.4 µM (inactive). For the same compound, the GI50 was 19.1 µM (inactive) in assay [19] and 16.9 µM (inactive) in [20].
As to `COc1ccc(N2C(=O)C3c4[nH]c5ccc([N+](=O)[O-])cc5c4C4CCC(C(C)(C)C)CC4C3C2=O)cc1` (configuration not stated), the GI50 was 13.7 µM (inactive) in [1]; 13.3 µM (inactive) in [2]; 23.6 µM (inactive) in assay [3]; 18.5 µM (inactive) in assay [4]; 18.7 µM (inactive) in assay [5]; 15.2 µM (inactive) in assay [6]. For the same compound, the GI50 in assay [7] is 5.18 µM (inactive); in assay [8] it was 2.52 µM (inactive); in assay [9], 2.15 µM (inactive); in [10], 4.51 µM (inactive); in assay [11] it was 12.4 µM (inactive); in assay [12] it was 19.9 µM (inactive). Further, the GI50 in assay [13] is 25.2 µM (inactive); in assay [14], 6.9 µM (inactive); in [15], 25.4 µM (inactive); in [16], 7.66 µM (inactive); in assay [17], 4.45 µM (inactive); in [18], 32.8 µM (inactive). Besides, the GI50 in [19] is 2.26 µM (inactive); in assay [20], 61.7 µM (inactive).
For `O=C1c2cc(-c3ccccc3)cnc2S(=O)(=O)N1c1ccc(Br)cc1`, the GI50 is 20 µM (inactive) in [1]; 21.1 µM (inactive) in assay [2]; 44 µM (inactive) in [3]; 40.8 µM (inactive) in assay [4]; > 100 µM (inactive) in assay [5]; 30.5 µM (inactive) in assay [6]. Moreover, the GI50 is 52.2 µM (inactive) in assay [7]; 24.3 µM (inactive) in [9]; 24.9 µM (inactive) in [10]; 70 µM (inactive) in assay [11]; 14.8 µM (inactive) in assay [12]; > 100 µM (inactive) in assay [13]. Also, the GI50 in assay [14] was 27.1 µM (inactive); in [15], 20 µM (inactive); in assay [16] it was 46.2 µM (inactive); in assay [17], > 100 µM (inactive); in [18], 58.3 µM (inactive); in [19], > 100 µM (inactive). Further, the GI50 in assay [20] is 90.8 µM (inactive).
With `CCOC(=O)/C(C(=O)Nc1cccc(C(F)(F)F)c1)=C(/N)N1CCOCC1`, the GI50 in assay [1], in assay [2], in assay [3], in assay [4], in assay [5] and in assay [6] was > 100 µM (inactive) each time. Also, the GI50 in [7], in assay [8], in assay [9], in [10], in assay [12] and in assay [13] was > 100 µM (inactive) in each case. Further, the GI50 in assay [14], in [15], in assay [16], in [17], in assay [18] and in [19] was > 100 µM (inactive) in each case. For the same compound, the GI50 in assay [20] is > 100 µM (inactive).
For the compound `CN(C)c1ccccc1CN1CCCN(Cc2ccccc2N(C)C)C1c1ccncc1`, the GI50 was 15.3 µM (inactive) in assay [1]; 5.75 µM (inactive) in [2]; 15.4 µM (inactive) in assay [3]; 14.1 µM (inactive) in assay [4]; 6.28 µM (inactive) in assay [5]; 16.4 µM (inactive) in assay [6]. Further, the GI50 is 14.7 µM (inactive) in [7]; 7.41 µM (inactive) in assay [8]; 14 µM (inactive) in [9]; 5.36 µM (inactive) in [11]; 13 µM (inactive) in assay [12]; 14.4 µM (inactive) in [13]. Further, the GI50 in assay [14] is 3.47 µM (inactive); in [15] it was 17.7 µM (inactive); in assay [16], 14.9 µM (inactive); in assay [17], 15.9 µM (inactive); in assay [18] it was 16.9 µM (inactive); in [19], 12.4 µM (inactive). For the same compound, in assay [20], the GI50 was 9.06 µM (inactive).
